Paper PMC11284788, “NN1213 – A Potent, Long-Acting, and Selective Analog of Human Amylin” (Journal of Medicinal Chemistry, 2024)
Like-named read-outs stand apart in the source and are kept apart here.

Experiments:
rats = assay: Acute food intake in rats; format: in vivo, rat
in vivo = conditions: male, Göttingen, minipig, iv
hAMY1R = hAMY1R (Homo sapiens, UniProt O60894+P30988); assay: Whole-cell competition binding, hAMY1R; parameters: expressed in transfected cells; host or cells: BHK tk-ts 13, transient co-transfection (FuGENE 6); conditions: IC50 for the CTR divided by that of the AMYR, human receptors
hAMY3R = molecular target: T1, hAMY3R (Homo sapiens, UniProt O60896+P30988); assay: Whole-cell competition binding, hAMY3R; parameters: expressed in transfected cells; host or cells: BHK tk-ts 13, transient co-transfection; whole cells for the species-specific assays; conditions: IC50 for the CTR divided by that of the AMYR, human receptors
T1 sequence (P30988 25-474): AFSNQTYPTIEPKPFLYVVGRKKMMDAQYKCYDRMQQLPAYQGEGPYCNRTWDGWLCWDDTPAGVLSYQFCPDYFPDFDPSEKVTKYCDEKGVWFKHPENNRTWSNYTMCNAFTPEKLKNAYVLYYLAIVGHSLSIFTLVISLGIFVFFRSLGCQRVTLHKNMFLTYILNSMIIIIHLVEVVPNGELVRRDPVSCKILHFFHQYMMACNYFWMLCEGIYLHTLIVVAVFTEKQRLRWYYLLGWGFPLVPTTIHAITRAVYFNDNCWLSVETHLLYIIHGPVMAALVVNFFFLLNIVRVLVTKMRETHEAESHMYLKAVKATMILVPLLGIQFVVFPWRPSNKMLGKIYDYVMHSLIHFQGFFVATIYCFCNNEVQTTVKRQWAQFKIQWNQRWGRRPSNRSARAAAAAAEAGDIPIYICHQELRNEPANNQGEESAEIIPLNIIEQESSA
T1 sequence (O60896 24-148 partner): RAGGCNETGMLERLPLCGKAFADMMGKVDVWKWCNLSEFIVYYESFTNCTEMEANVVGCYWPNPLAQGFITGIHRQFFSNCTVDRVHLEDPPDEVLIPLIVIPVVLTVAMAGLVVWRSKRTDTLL

hCTR [1] = molecular target: T2, hCTR (Homo sapiens, UniProt P30988); assay: cAMP-responsive element luciferase reporter assay, human CTR; format: cell-based; conditions: luciferase (human receptor assay); for hCTR pEC50: Tables S12 and S14
T2 sequence (P30988 25-474): T1 sequence (P30988 25-474)

rat CTR = molecular target: T3, rat CTR (Rattus norvegicus, UniProt P32214); assay: cAMP FlashPlate assay, rat CTR; format: cell-based; conditions: cAMP (rat receptor assay)
T3 construct: expressed in transfected cells; host or cells: BHK tk-ts 13, transient (FuGENE 6)
T3 sequence (P32214 25-479 isoform P32214-2 limits assumed): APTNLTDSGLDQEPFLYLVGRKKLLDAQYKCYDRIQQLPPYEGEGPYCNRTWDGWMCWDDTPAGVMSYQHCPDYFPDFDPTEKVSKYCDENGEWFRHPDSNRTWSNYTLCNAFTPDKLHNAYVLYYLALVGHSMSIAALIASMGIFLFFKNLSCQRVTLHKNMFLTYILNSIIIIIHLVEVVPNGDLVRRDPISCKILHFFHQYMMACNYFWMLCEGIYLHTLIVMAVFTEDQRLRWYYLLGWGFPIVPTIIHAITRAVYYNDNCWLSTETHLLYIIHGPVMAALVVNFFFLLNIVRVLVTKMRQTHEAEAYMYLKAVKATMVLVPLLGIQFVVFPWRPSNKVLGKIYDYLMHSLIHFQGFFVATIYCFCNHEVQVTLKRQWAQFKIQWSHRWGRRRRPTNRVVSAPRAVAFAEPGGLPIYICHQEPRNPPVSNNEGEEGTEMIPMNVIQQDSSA

rCTR = molecular target: T4, rCTR (Rattus norvegicus, UniProt P32214); assay: scintillation proximity binding assay, rCTR membranes
T4 construct: expressed in transfected cells; host or cells: BHK tk-ts 13, transient (FuGENE 6)
T4 sequence (P32214 25-479 isoform P32214-2 limits assumed): T3 sequence (P32214 25-479 isoform P32214-2 limits assumed)

hCTR [2] = molecular target: T2, hCTR; assay: scintillation proximity binding assay, hCTR membranes; parameters: expressed in transfected cells; host or cells: BHK tk-ts 13, transient (FuGENE 6); membranes for the SPA, whole cells for the species-specific assays
[3] = Tables S12 and S14, read-out: rCTR pEC50 (converted)
[4] = transiently transfected BHK tk-ts 13 cells, FlashPlate, 30 min room temperature, 2% HSA, read-out: rCTR EC50
[5] = single sc injection of 30 nmol/kg, relative to vehicle, mean ± SEM, n = 5–7 per group
[6] = SPA binding assay, Tables S13 and S15

Chain of hAMY1R (O60894 27-148 partner, one chain of several): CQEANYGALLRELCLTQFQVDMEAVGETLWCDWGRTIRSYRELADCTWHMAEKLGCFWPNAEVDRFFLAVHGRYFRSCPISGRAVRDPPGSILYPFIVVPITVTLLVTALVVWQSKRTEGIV

| SMILES | food intake reduction, following 24 h (rats; single sc dose 3 nmol/kg, 24–48 h, compared to controls) | food intake reduction, first 24 h (rats; single sc dose 3 nmol/kg, compared to controls) | food intake reduction, first 24 h (rats; single sc dose 100 nmol/kg) | half-life (in vivo) | Ratio CTR/AMY1R (human, binding) (hAMY1R) | Ratio CTR/AMY3R (human, binding) (hAMY3R) | hCTR pEC50 (hCTR [1]) | EC50 (rat CTR; [3]) | EC50 (rat CTR; [4]) | IC50 (rCTR; SPA binding assay, Tables S13 and S15, read-out: rCTR pIC50 (converted)) | IC50 (rCTR; SPA, BHK cell membranes, 125I-Calcitonin 75 pM, 120 min 25 °C, read-out: rCTR IC50) | Acute food intake reduction 24–48 h (rats; [5]) | IC50 (hCTR [2]; SPA binding assay, Tables S13 and S15, read-out: hCTR pIC50 (converted)) | IC50 (hCTR [2]; SPA, BHK cell membranes, 125I-Calcitonin 75 pM, 120 min 25 °C, read-out: hCTR IC50) | EC50 (hCTR [1]; BHK cells stably expressing hCTR and CRE-luciferase, 3 h, 37 °C, 10% FBS, read-out: hCTR EC50) | rCTR pIC50 (rCTR; [6]) | Acute food intake reduction 0–24 h (rats; [5]) | hCTR pIC50 (hCTR [2]; [6]) |
| --- | --- | --- | --- | --- | --- | --- | --- | --- | --- | --- | --- | --- | --- | --- | --- | --- | --- | --- |
| CC[C@H](C)[C@H](NC(=O)[C@H](C)NC(=O)CNC(=O)[C@H](Cc1ccccc1)NC(=O)[C@H](CC(N)=O)NC(=O)[C@@H]1CCCN1C(=O)[C@H](CO)NC(=O)[C@H](CO)NC(=O)[C@H](Cc1c[nH]cn1)NC(=O)[C@H](CCCNC(=N)N)NC(=O)[C@H](CC(C)C)NC(=O)[C@H](Cc1ccccc1)NC(=O)[C@H](CC(=O)O)NC(=O)[C@H](C)NC(=O)[C@H](CC(C)C)NC(=O)[C@H](CCCNC(=N)N)NC(=O)[C@H](CCC(N)=O)NC(=O)[C@@H](NC(=O)[C@H](C)NC(=O)[C@@H]1CSSC[C@H](NC(=O)[C@@H](N)CCCCNC(=O)CC[C@H](NC(=O)CC[C@H](NC(=O)CCCCCCCCCCCCCCCCCCC(=O)O)C(=O)O)C(=O)O)C(=O)N[C@@H](CC(N)=O)C(=O)N[C@@H]([C@@H](C)O)C(=O)N[C@@H](C)C(=O)N[C@@H]([C@@H](C)O)C(=O)N1)[C@@H](C)O)C(=O)N1CCC[C@H]1C(=O)N[C@@H](CO)C(=O)N[C@@H](CO)C(=O)N[C@H](C(=O)N[C@@H](CC(N)=O)C(=O)N[C@H](C(=O)NCC(=O)N[C@@H](CO)C(=O)N[C@@H](CCCNC(=N)N)C(=O)N[C@H](C(=O)N[C@@H](Cc1ccc(O)cc1)C(N)=O)[C@@H](C)O)C(C)C)[C@@H](C)O [NN1213] | 15% | 25% | 70% | 116 h | 120 | 67 |  |  |  |  |  |  |  |  |  |  |  |  |
| CC[C@H](C)[C@H](NC(=O)[C@H](C)NC(=O)CNC(=O)[C@H](Cc1ccccc1)NC(=O)[C@H](CC(N)=O)NC(=O)[C@@H]1CCCN1C(=O)[C@H](CO)NC(=O)[C@H](CO)NC(=O)[C@H](Cc1c[nH]cn1)NC(=O)[C@H](CCCNC(=N)N)NC(=O)[C@H](CC(C)C)NC(=O)[C@H](Cc1ccccc1)NC(=O)[C@H](CC(N)=O)NC(=O)[C@H](C)NC(=O)[C@H](CC(C)C)NC(=O)[C@H](CCCNC(=N)N)NC(=O)[C@H](CCC(N)=O)NC(=O)[C@@H](NC(=O)[C@H](C)NC(=O)[C@@H]1CSSC[C@H](NC(=O)[C@@H](N)CCCCNC(=O)CC[C@H](NC(=O)CCCCCCCCCCCCCCCCCCC(=O)O)C(=O)O)C(=O)N[C@@H](CC(N)=O)C(=O)N[C@@H]([C@@H](C)O)C(=O)N[C@@H](C)C(=O)N[C@@H]([C@@H](C)O)C(=O)N1)[C@@H](C)O)C(=O)N1CCC[C@H]1C(=O)N[C@@H](CO)C(=O)N[C@@H](CO)C(=O)N[C@H](C(=O)N[C@@H](CC(N)=O)C(=O)N[C@H](C(=O)NCC(=O)N[C@@H](CO)C(=O)N[C@@H](CCCCN)C(=O)N[C@H](C(=O)N[C@@H](Cc1ccc(O)cc1)C(N)=O)[C@@H](C)O)C(C)C)[C@@H](C)O [Peptide 14] |  |  |  |  |  |  | 8.26 | 37.2 nM | 37.2 nM | 56.2 nM | 55.6 nM | 15 ± 4% | 42.7 nM | 42.3 nM |  |  |  |  |
| CC[C@H](C)[C@H](NC(=O)[C@H](C)NC(=O)CNC(=O)[C@H](Cc1ccccc1)NC(=O)[C@H](CC(N)=O)NC(=O)[C@@H]1CCCN1C(=O)[C@H](CO)NC(=O)[C@H](CO)NC(=O)[C@H](Cc1c[nH]cn1)NC(=O)[C@H](CCCNC(=N)N)NC(=O)[C@H](CC(C)C)NC(=O)[C@H](Cc1ccccc1)NC(=O)[C@H](CC(N)=O)NC(=O)[C@H](C)NC(=O)[C@H](CC(C)C)NC(=O)[C@H](CCCNC(=N)N)NC(=O)[C@H](CCC(N)=O)NC(=O)[C@@H](NC(=O)[C@H](C)NC(=O)[C@@H]1CSSC[C@H](NC(=O)[C@H](CCCCN)NC(=O)CC[C@H](NC(=O)CCCCCCCCCCCCCCCCCCC(=O)O)C(=O)O)C(=O)N[C@@H](CC(N)=O)C(=O)N[C@@H]([C@@H](C)O)C(=O)N[C@@H](C)C(=O)N[C@@H]([C@@H](C)O)C(=O)N1)[C@@H](C)O)C(=O)N1CCC[C@H]1C(=O)N[C@@H](CO)C(=O)N[C@@H](CO)C(=O)N[C@H](C(=O)N[C@@H](CC(N)=O)C(=O)N[C@H](C(=O)NCC(=O)N[C@@H](CO)C(=O)N[C@@H](CCCCN)C(=O)N[C@H](C(=O)N[C@@H](Cc1ccc(O)cc1)C(N)=O)[C@@H](C)O)C(C)C)[C@@H](C)O [Peptide 13] |  |  |  |  |  |  | 8.58 | 30.2 nM | 30.4 nM |  |  | 25 ± 7% |  |  | 2.61 nM | 7.05 | 37 ± 7% | 7.13 |
